Data reported in patent publication US20230310445A1, “LOX ENZYME INHIBITING METHODS AND COMPOSITIONS” (ANOVIA BIOSCIENCES, INC., priority 2020, published 2023).

Tests used:
[1] = biological target: T1, Recombinant human LOXL2 (lysyl oxidase like 2) (Homo sapiens, UniProt Q9Y4K0); experiment: LOXL2 inhibition assay (fluorometric, cadaverine/Amplex Red/HRP); format: biochemical; conditions: IC50 class; recombinant human LOXL2, cadaverine substrate; read-out: Activity Range LOXL2
T1 construct: purchased R&D systems
T1 sequence (Q9Y4K0 26-774): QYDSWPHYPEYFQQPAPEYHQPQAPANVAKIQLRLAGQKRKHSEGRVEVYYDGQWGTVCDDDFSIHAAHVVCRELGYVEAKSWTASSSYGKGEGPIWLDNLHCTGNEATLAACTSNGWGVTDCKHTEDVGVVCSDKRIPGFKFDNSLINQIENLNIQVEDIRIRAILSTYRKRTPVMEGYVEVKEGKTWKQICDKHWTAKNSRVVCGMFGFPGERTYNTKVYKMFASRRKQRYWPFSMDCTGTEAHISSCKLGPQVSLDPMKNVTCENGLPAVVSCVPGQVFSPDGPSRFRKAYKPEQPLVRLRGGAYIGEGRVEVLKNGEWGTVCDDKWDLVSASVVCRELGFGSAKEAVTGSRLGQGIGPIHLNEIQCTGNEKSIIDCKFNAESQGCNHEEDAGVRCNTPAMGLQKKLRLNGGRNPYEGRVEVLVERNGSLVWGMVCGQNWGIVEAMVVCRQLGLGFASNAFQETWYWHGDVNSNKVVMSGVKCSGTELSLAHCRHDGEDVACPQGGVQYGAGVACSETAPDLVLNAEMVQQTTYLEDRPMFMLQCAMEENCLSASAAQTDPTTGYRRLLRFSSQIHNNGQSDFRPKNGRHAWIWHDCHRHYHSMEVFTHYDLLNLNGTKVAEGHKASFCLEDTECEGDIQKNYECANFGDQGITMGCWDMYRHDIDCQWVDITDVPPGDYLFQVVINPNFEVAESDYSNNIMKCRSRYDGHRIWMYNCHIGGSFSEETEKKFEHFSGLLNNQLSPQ
How it was run: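 Both enzymes assayed in 1.2 M urea, 50 mM sodium borate pH 8.0, 10 mM CaCl, with 30 min compound–enzyme preincubation at 37° C before cadaverine/Amplex Red/HRP addition. Fluorescence followed 60 min at 37° C; linear-slope rates, background-subtracted, as % of DMSO control, fitted by 4-parameter variable-slope curve (bottom fixed at 0).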

[2] = biological target: T2, Bovine lysyl oxidase (LOX) (Bos taurus, UniProt P33072); experiment: LOX inhibition assay (fluorometric, cadaverine/Amplex Red/HRP); format: biochemical; conditions: IC50 class; bovine tendon LOX, cadaverine substrate; read-out: Activity Range LOX
T2 construct: from tissue; host or cells: adult bovine tendon
T2 sequence (P33072 170-418): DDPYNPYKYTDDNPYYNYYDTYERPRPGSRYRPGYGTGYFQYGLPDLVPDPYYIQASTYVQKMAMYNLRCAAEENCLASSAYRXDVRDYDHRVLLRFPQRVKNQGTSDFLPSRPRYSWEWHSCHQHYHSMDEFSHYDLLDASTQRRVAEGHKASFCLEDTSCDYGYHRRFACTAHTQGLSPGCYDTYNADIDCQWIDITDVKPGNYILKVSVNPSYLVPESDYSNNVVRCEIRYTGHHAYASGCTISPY
How it was run: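 Bovine tendon-extracted LOX was preincubated 30 min at 37 °C with compound. Cadaverine/Amplex Red/HRP was then added and fluorescence (ex530/em600) monitored for 120 min at 37 °C. Progress-curve slopes, background-subtracted against no-protein wells, were normalised to DMSO controls and fitted with a four-parameter variable-slope dose-response model.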

| SMILES | IC50 [1] [nM] | IC50 [2] [nM] |
| --- | --- | --- |
| NCc1cc(S(=O)(=O)N2C[C@H](C(=O)N3CCS(=O)(=O)CC3)C[C@@H](c3ccccc3)C2)ccn1 (racemic) [Example 130T, trans-(1-((2-(Aminomethyl)pyridin-4-yl)sulfonyl)-5-phenylpiperidin-3-yl)(1,1-dioxidothiomorpholino)methanone 2,2,2-trifluoroacetate] | ≤ 500 | 1000 to 30000 |
| NCc1cncc(S(=O)(=O)N2C[C@@H](C(=O)N3CCOCC3)C[C@@H](c3ccccc3)C2)c1 (racemic) [Example 131, cis-(1-((5-(Aminomethyl)pyridin-3-yl)sulfonyl)-5-phenylpiperidin-3-yl)(morpholino)methanone 2,2,2-trifluoroacetate] | 1000 to 30000 | > 30000 |
| NCc1cncc(S(=O)(=O)N2C[C@@H](C(=O)N3CCS(=O)(=O)CC3)C[C@@H](c3ccccc3)C2)c1 (racemic) [Example 132, cis-(1-((5-(Aminomethyl)pyridin-3-yl)sulfonyl)-5-phenylpiperidin-3-yl)(1,1-dioxidothiomorpholino)methanone 2,2,2-trifluoroacetate] | 1000 to 30000 | > 30000 |
| CN(C)C(=O)N1C[C@@H](C2CCCCC2)C[C@@H](S(=O)(=O)c2cccc(CN)c2)C1 (racemic) [Example 135, cis-3-((3-(Aminomethyl)phenyl)sulfonyl)-5-cyclohexyl-N,N-dimethylpiperidine-1-carboxamide] | ≤ 500 | > 30000 |
| NCc1cccc(S(=O)(=O)[C@@H]2C[C@H](C3CCCCC3)CN(C(=O)N3CCS(=O)(=O)CC3)C2)c1 (racemic) [Example 137, cis-(3-((3-(Aminomethyl)phenyl)sulfonyl)-5-cyclohexylpiperidin-1-yl)(1,1-dioxidothiomorpholino)methanone] | ≤ 500 | > 30000 |
| NCc1cccc(S(=O)(=O)[C@H]2C[C@H](C3CCCCC3)CN(C(=O)N3CCS(=O)(=O)CC3)C2)c1 (racemic) [Example 137T, trans-(3-((3-(Aminomethyl)phenyl)sulfonyl)-5-cyclohexylpiperidin-1-yl)(1,1-dioxidothiomorpholino)methanone] | ≤ 500 | > 30000 |
| CN(C)C(=O)[C@@H]1C[C@H](S(=O)(=O)c2cccc(CN)c2)CN(C2CCCCC2)C1 (racemic) [Example 141, cis-5-((3-(Aminomethyl)phenyl)sulfonyl)-1-cyclohexyl-N,N-dimethylpiperidine-3-carboxamide] | ≤ 500 | > 30000 |
| CN(C)C(=O)[C@H]1C[C@H](S(=O)(=O)c2cccc(CN)c2)CN(C2CCCCC2)C1 (racemic) [Example 141T, trans-5-((3-(Aminomethyl)phenyl)sulfonyl)-1-cyclohexyl-N,N-dimethylpiperidine-3-carboxamide] | ≤ 500 | > 30000 |
| NCc1cccc(S(=O)(=O)[C@H]2C[C@@H](C(=O)N3CCOCC3)CN(C3CCCCC3)C2)c1 (racemic) [Example 142, cis-(5-((3-(Aminomethyl)phenyl)sulfonyl)-1-cyclohexylpiperidin-3-yl)(morpholino)methanone 2,2,2-trifluoroacetate] | ≤ 500 | > 30000 |
| NCc1cccc(S(=O)(=O)[C@H]2C[C@@H](C(=O)N3CCS(=O)(=O)CC3)CN(C3CCCCC3)C2)c1 (racemic) [Example 143, cis-(5-((3-(Aminomethyl)phenyl)sulfonyl)-1-cyclohexylpiperidin-3-yl)(1,1-dioxidothiomorpholino)methanone 2,2,2-trifluoroacetate] | ≤ 500 | > 30000 |
| NCc1ccc(S(=O)(=O)N2C[C@@H](C(=O)N3CCOCC3)C[C@@H](c3ccccc3)C2)s1 [Example 13A, ((3S,5S)-1-((5-(aminomethyl)thiophen-2-yl)sulfonyl)-5-phenylpiperidin-3-yl)(morpholino)methanone] | ≤ 500 | ≤ 500 |

Other lines, results leading:

| IC50 [1] [nM] | IC50 [2] [nM] | SMILES |
| --- | --- | --- |
| ≤ 500 | > 30000 | NCc1cccc(S(=O)(=O)[C@H]2C[C@H](C(=O)N3CCOCC3)CN(C3CCCCC3)C2)c1 (racemic) [Example 142T, trans-(5-((3-(Aminomethyl)phenyl)sulfonyl)-1-cyclohexylpiperidin-3-yl)(morpholino)methanone 2,2,2-trifluoroacetate] |
| ≤ 500 | 1000 to 30000 | NCc1ccnc(S(=O)(=O)N2C[C@@H](C(=O)N3CCS(=O)(=O)CC3)C[C@@H](N3CCCCC3)C2)c1 (racemic) [Example 148, cis-(1′-((4-(Aminomethyl)pyridin-2-yl)sulfonyl)-[1,3′-bipiperidin]-5′-yl)(1,1-dioxidothiomorpholino)methanone 2,2,2-trifluoroacetate] |
| 500 to 1000 | > 30000 | CS(=O)(=O)N1CCN(C(=O)[C@H]2C[C@@H](N3CCCCC3)CN(S(=O)(=O)c3cc(CN)ccn3)C2)CC1 (racemic) [Example 149, cis-(1′-((4-(Aminomethyl)pyridin-2-yl)sulfonyl)-[1,3′-bipiperidin]-5′-yl)(4-(methylsulfonyl)piperazin-1-yl)methanone 2,2,2-trifluoroacetate] |
| 500 to 1000 | 1000 to 30000 | CN1CCN(C(=O)[C@H]2C[C@@H](N3CCCCC3)CN(S(=O)(=O)c3cc(CN)ccn3)C2)CC1 (racemic) [Example 150, cis-(1′-((4-(Aminomethyl)pyridin-2-yl)sulfonyl)-[1,3′-bipiperidin]-5′-yl)(4-methylpiperazin-1-yl)methanone 2,2,2-trifluoroacetate] |
| 500 to 1000 | 1000 to 30000 | NCc1ccnc(S(=O)(=O)N2C[C@@H](C(=O)N3CCOCC3)C[C@@H](N3CCOCC3)C2)c1 (racemic) [Example 155, cis-(1-((4-(Aminomethyl)pyridin-2-yl)sulfonyl)-5-morpholinopiperidin-3-yl)(morpholino)methanone 2,2,2-trifluoroacetate] |
| ≤ 500 | 1000 to 30000 | NCc1ccnc(S(=O)(=O)N2C[C@H](C(=O)N3CCOCC3)C[C@H](N3CCCCC3=O)C2)c1 (racemic) [Example 186, cis-1′-((4-(Aminomethyl)pyridin-2-yl)sulfonyl)-5′-(morpholine-4-carbonyl)-[1,3′-bipiperidin]-2-one 2,2,2-trifluoroacetate] |
| ≤ 500 | 1000 to 30000 | NCc1ccnc(S(=O)(=O)N2C[C@@H](C(=O)N3CCS(=O)(=O)CC3)C[C@@H](N3CCCCC3=O)C2)c1 (racemic) [Example 187, cis-1′-((4-(Aminomethyl)pyridin-2-yl)sulfonyl)-5′-(1,1-dioxidothiomorpholine-4-carbonyl)-[1,3′-bipiperidin]-2-one 2,2,2-trifluoroacetate] |
| 1000 to 30000 | > 30000 | NCc1cccc(S(=O)(=O)N2C[C@@H](C(=O)N3CCOCC3)C[C@@H](C(F)(F)F)C2)c1 (relative stereo) [Example 98, cis-(1-((3-(Aminomethyl)phenyl)sulfonyl)-5-(trifluoromethyl)piperidin-3-yl)(morpholino)methanone 2,2,2-trifluoroacetate] |
